In patent publication US8653271B2 (priority 2006, dated 2014):

How the values were obtained:
[1] = Table 4; values obtained from Kiptoo et al.; cited from earlier work
[2] = Differential scanning calorimetry; format: physicochemical; details: for Mean activity of solid @ T = 25° C., a2: calculated from melting point and heat of fusion; for Heat of fusion, ΔHf: ±s.d., n = 3
[3] = human skin, values obtained from Kiptoo et al., cited from earlier work; for In vitro flux: codrug as NTXOL equivalent flux
[4] = Plasma hydrolysis of the carbonate codrug; format: in vitro ADME, guinea pig; details: for Guinea pig plasma half-life: guinea pig plasma in vitro at 37° C.
Description: Guinea pig plasma, which was stored at −20° C., was thawed to room temperature. Known and sub-saturated amounts of the codrug (50 nmol) were added to approximately 2.0 ml of the guinea pig plasma and vortexed. Two-hundred μl aliquots of the spiked plasma were distributed into sealed vials, and incubated at 37° C. Samples were withdrawn at predetermined time intervals; 0, 0.5, 1, 2, 4, 6, 9, 24, 30, and 48 h. 500 μl of ACN was added to each sample to precipitate plasma protein. Each sample was vortexed and centrifuged at 10,000×g for 15 min. The supernatant was separated and evaporated under nitrogen at room temperature, and the residue was reconstituted with ACN for high-pressure liquid chromatography (HPLC) analysis. A standard curve was prepared from drug-spiked plasma samples processed by the same method. The amounts of the codrug remaining or parent drugs released were plotted against time. These hydrolytic profiles were fit to previously developed mathematical models using nonlinear least-squares regression analysis ([…]®, Micromath Inc., Salt Lake City, Utah) as described by the equations below: […]

[5] = format: physicochemical; details: isotonic phosphate buffer pH 7.4, 32° C.
Description: Equal amounts of the each of the codrug were distributed into labeled test-tubes (20 nmol in each tube). Care was taken to ensure that the entire codrug was dissolved and the solution remained clear. Hydrolysis of the carbonate codrug (˜20 nmol) was conducted in isotonic phosphate buffer pH 7.4 at 32° C. in a water-bath with continuous stirring. […] Samples were collected at predetermined time intervals and stored in the freezer at −20° C. until analyzed. All experiments were conducted in triplicate. An aliquot part (250 μL) of hydrolysis solutions was mixed with 750 μL of acetonitrile, vortexed for 30s, and analyzed by HPLC for the presence of codrug and the two corresponding parent drugs, as well as for the intermediate hydrolysis product, 23. […] A Brownlee C18 reversed-phase Spheri-5 μm column (220×4.6 mm) connected to a C18 reversed-phase guard column (15×3.2 mm) was utilized and detection of solutes was carried out at 215 nm. The mobile phase consisted of a mixture of acetonitrile: 0.1% trifluoroacetic acid adjusted to pH 3.0 with triethylamine (50:50, v/v). The mobile phase flow rate was 1.5 mL/min and 100 μL of hydrolysis sample was injected onto the column.

[6] = Stratum corneum/vehicle partition coefficient studies; format: in vitro ADME, human; details: mineral oil vehicle, 32° C., 48 h; no units
Description: Human epidermis with stratum corneum (SC) side facing up was incubated on filter paper soaked with 0.1% trypsin in 0.5% sodium bicarbonate solution at 37° C. for 3 h. The SC membrane was separated and dried in a vacuum dessicator. After 24 h, the SC was dipped in acetone for 20 s to remove sebaceous lipids and dried again.
Approximately 5 mg of SC was equilibrated with sub-saturated drug solutions in 0.5 g of mineral oil solution at 32° C. for 48 h. Two different levels of sub-saturated drug solutions, 10 and 20 nmol in 0.5 g of mineral oil, were used in SC/vehicle partition coefficient studies. However, irrespective of the drug concentrations used, the ratio derived should always be the same since the partition coefficient measurement is an equilibrium phenomenon. An aliquot of the mineral oil solution (10 μl) was withdrawn at the end of the study and was diluted to 1000 μl with acetonitrile. The samples were then analyzed by HPLC. The amount of the drug partitioned into the SC was measured by subtracting the amount present in the mineral oil after equilibration from the initial drug concentration in the mineral oil. The partition coefficient ratio was expressed as the concentration of the drug in 1 g of SC divided by the concentration of the drug in 1 g of mineral oil.

[7] = mice, versus naloxone and naltrexone; cited from earlier work
[8] = previous experiments; cited from earlier work
[9] = test system: electrically-stimulated guinea pig ileum; details: in vitro; cited from earlier work
[10] = humans, systemic circulation after oral dose of NTX; cited from earlier work

| Compound | Light mineral oil solubility [1] [µM] | Mean activity of solid @ T = 25° C., a2 [2] | Heat of fusion, ΔHf [2] [kcal/mol] | In vitro flux [3] [nmol cm^−2 h^−1] | In vitro lag time [3] [h] | Guinea pig plasma half-life ([4]; listed as CB-NTXOL-BUPOH) [h] | Guinea pig plasma half-life ([4]; listed as codrug) | hydrolysis in guinea pig plasma compared to pH 7.4 phosphate buffer ([4]; in vitro) | first-order rate constant k2 ([5]; generation of BUPOH via intermediate from codrug 26) [h⁻¹] | first-order rate constant k1 ([5]; hydrolysis at carbonate linker generating NTX (25) or NTXOL (26)) [h⁻¹] | SC/Vehicle partition coefficient, PC [6] | in vivo potency of an acute dose [7] | flux and other in vitro permeation parameters, guinea pig skin relative to human skin [8] [fold] | potency relative to naloxone [9] [fold] | potency relative to naltrexone [9] [fold] | Guinea pig plasma half-life [4] | half-life [10] |
| --- | --- | --- | --- | --- | --- | --- | --- | --- | --- | --- | --- | --- | --- | --- | --- | --- | --- |
| Cc1c(-c2cccc(Cl)c2)oc(=O)n1C(C)(C)COC(=O)Oc1ccc2c3c1OC1C(O)CCC4(O)C(C2)N(CC2CC2)CCC314 (centres unmarked) [Compound 26] | 2880 ± 90 | 0.20 | 3.031 ± 0.019 | 1.34 ± 0.35 | 12.10 ± 0.77 | 8.7 | approximately 8.7 h | almost three-fold faster hydrolysis | 0.0139 ± 0.0006 | 0.0240 ± 0.0007 | 200.61 | – | – | – | – | – | – |
| Oc1ccc2c3c1O[C@H]1[C@H](O)CC[C@@]4(O)[C@@H](C2)N(CC2CC2)CC[C@]314 [Compound 2, 6-β-naltrexol] | 30 ± 10 | 0.12 | 3.597 ± 0.0478 | 0.36 ± 0.15 | 15.72 ± 1.76 | – | – | – | – | – | 73.91 | less than the other two antagonists | 5.6 | 4.5 | 2.8 | stable | about 12 h |
